# Experimental data from ChEMBL document CHEMBL4627246, “Pyroglutamide-Based P2X7 Receptor Antagonists Targeting Inflammatory Bowel Disease” (J Med Chem, 2020).
# System: A549
# Assay: Cytotoxicity against human A549/ATCC cells assessed as effect on cell growth at 10 uM incubated for 48 hrs by sulforhodamine B assay
# Format: cell-based
# Settings: a549, 48 h
row,SMILES,Activity
1,CN(C)/C=C1\C[C@@H](C(=O)NCc2ccc(Cl)cc2Cl)N(c2cccs2)C1=O,Non-Toxic
2,O=C1N[C@H](C(=O)NCc2ccc(Cl)cc2Cl)C/C1=C/NCc1ccc(Cl)cc1Cl,Non-Toxic
3,O=C(NCC1CCCCC1)[C@@H]1CCC(=O)N1c1ccccc1,Non-Toxic

# System: SR
# Assay: Cytotoxicity against human SR cells assessed as effect on cell growth at 10 uM incubated for 48 hrs by sulforhodamine B assay
# Format: cell-based
# Settings: not given
row,SMILES,Activity
1,CN(C)/C=C1\C[C@@H](C(=O)NCc2ccc(Cl)cc2Cl)N(c2cccs2)C1=O,Non-Toxic
2,O=C1N[C@H](C(=O)NCc2ccc(Cl)cc2Cl)C/C1=C/NCc1ccc(Cl)cc1Cl,Non-Toxic
3,O=C(NCC1CCCCC1)[C@@H]1CCC(=O)N1c1ccccc1,Non-Toxic

# System: RPMI-8226
# Assay: Cytotoxicity against human RPMI8226 cells assessed as effect on cell growth at 10 uM incubated for 48 hrs by sulforhodamine B assay
# Format: cell-based
# Settings: rpmi-8226, 48 h
row,SMILES,Activity
1,CN(C)/C=C1\C[C@@H](C(=O)NCc2ccc(Cl)cc2Cl)N(c2cccs2)C1=O,Non-Toxic
2,O=C1N[C@H](C(=O)NCc2ccc(Cl)cc2Cl)C/C1=C/NCc1ccc(Cl)cc1Cl,Non-Toxic
3,O=C(NCC1CCCCC1)[C@@H]1CCC(=O)N1c1ccccc1,Non-Toxic

# System: MOLT-4
# Assay: Cytotoxicity against human MOLT4 cells assessed as effect on cell growth at 10 uM incubated for 48 hrs by sulforhodamine B assay
# Format: cell-based
# Settings: molt-4, 48 h
row,SMILES,Activity
1,CN(C)/C=C1\C[C@@H](C(=O)NCc2ccc(Cl)cc2Cl)N(c2cccs2)C1=O,Non-Toxic
2,O=C1N[C@H](C(=O)NCc2ccc(Cl)cc2Cl)C/C1=C/NCc1ccc(Cl)cc1Cl,Non-Toxic
3,O=C(NCC1CCCCC1)[C@@H]1CCC(=O)N1c1ccccc1,Non-Toxic

# System: EKVX
# Assay: Cytotoxicity against human EKVX cells assessed as effect on cell growth at 10 uM incubated for 48 hrs by sulforhodamine B assay
# Format: cell-based
# Settings: not given
row,SMILES,Activity
1,CN(C)/C=C1\C[C@@H](C(=O)NCc2ccc(Cl)cc2Cl)N(c2cccs2)C1=O,Non-Toxic
2,O=C1N[C@H](C(=O)NCc2ccc(Cl)cc2Cl)C/C1=C/NCc1ccc(Cl)cc1Cl,Non-Toxic
3,O=C(NCC1CCCCC1)[C@@H]1CCC(=O)N1c1ccccc1,Non-Toxic

# System: HL-60(TB)
# Assay: Cytotoxicity against human HL-60(TB) cells assessed as effect on cell growth at 10 uM incubated for 48 hrs by sulforhodamine B assay
# Format: cell-based
# Settings: not given
row,SMILES,Activity
1,CN(C)/C=C1\C[C@@H](C(=O)NCc2ccc(Cl)cc2Cl)N(c2cccs2)C1=O,Non-Toxic
2,O=C1N[C@H](C(=O)NCc2ccc(Cl)cc2Cl)C/C1=C/NCc1ccc(Cl)cc1Cl,Non-Toxic
3,O=C(NCC1CCCCC1)[C@@H]1CCC(=O)N1c1ccccc1,Non-Toxic

# System: NCI-H460
# Assay: Cytotoxicity against human NCI-H460 cells assessed as effect on cell growth at 10 uM incubated for 48 hrs by sulforhodamine B assay
# Format: cell-based
# Settings: nci-h460, 48 h
row,SMILES,Activity
1,CN(C)/C=C1\C[C@@H](C(=O)NCc2ccc(Cl)cc2Cl)N(c2cccs2)C1=O,Non-Toxic
2,O=C1N[C@H](C(=O)NCc2ccc(Cl)cc2Cl)C/C1=C/NCc1ccc(Cl)cc1Cl,Non-Toxic
3,O=C(NCC1CCCCC1)[C@@H]1CCC(=O)N1c1ccccc1,Non-Toxic

# System: HCT-15
# Assay: Cytotoxicity against human HCT15 cells assessed as effect on cell growth at 10 uM incubated for 48 hrs by sulforhodamine B assay
# Format: cell-based
# Settings: hct-15, 48 h
row,SMILES,Activity
1,CN(C)/C=C1\C[C@@H](C(=O)NCc2ccc(Cl)cc2Cl)N(c2cccs2)C1=O,Non-Toxic
2,O=C1N[C@H](C(=O)NCc2ccc(Cl)cc2Cl)C/C1=C/NCc1ccc(Cl)cc1Cl,Non-Toxic
3,O=C(NCC1CCCCC1)[C@@H]1CCC(=O)N1c1ccccc1,Non-Toxic

# System: KM12
# Assay: Cytotoxicity against human KM12 cells assessed as effect on cell growth at 10 uM incubated for 48 hrs by sulforhodamine B assay
# Format: cell-based
# Settings: km12, 48 h
row,SMILES,Activity
1,CN(C)/C=C1\C[C@@H](C(=O)NCc2ccc(Cl)cc2Cl)N(c2cccs2)C1=O,Non-Toxic
2,O=C1N[C@H](C(=O)NCc2ccc(Cl)cc2Cl)C/C1=C/NCc1ccc(Cl)cc1Cl,Non-Toxic
3,O=C(NCC1CCCCC1)[C@@H]1CCC(=O)N1c1ccccc1,Non-Toxic

# System: SW-620
# Assay: Cytotoxicity against human SW620 cells assessed as effect on cell growth at 10 uM incubated for 48 hrs by sulforhodamine B assay
# Format: cell-based
# Settings: sw-620, 48 h
row,SMILES,Activity
1,CN(C)/C=C1\C[C@@H](C(=O)NCc2ccc(Cl)cc2Cl)N(c2cccs2)C1=O,Non-Toxic
2,O=C1N[C@H](C(=O)NCc2ccc(Cl)cc2Cl)C/C1=C/NCc1ccc(Cl)cc1Cl,Non-Toxic
3,O=C(NCC1CCCCC1)[C@@H]1CCC(=O)N1c1ccccc1,Non-Toxic

# System: SF-295
# Assay: Cytotoxicity against human SF295 cells assessed as effect on cell growth at 10 uM incubated for 48 hrs by sulforhodamine B assay
# Format: cell-based
# Settings: sf-295, 48 h
row,SMILES,Activity
1,CN(C)/C=C1\C[C@@H](C(=O)NCc2ccc(Cl)cc2Cl)N(c2cccs2)C1=O,Non-Toxic
2,O=C1N[C@H](C(=O)NCc2ccc(Cl)cc2Cl)C/C1=C/NCc1ccc(Cl)cc1Cl,Non-Toxic
3,O=C(NCC1CCCCC1)[C@@H]1CCC(=O)N1c1ccccc1,Non-Toxic

# System: SF-539
# Assay: Cytotoxicity against human SF539 cells assessed as effect on cell growth at 10 uM incubated for 48 hrs by sulforhodamine B assay
# Format: cell-based
# Settings: sf-539, 48 h
row,SMILES,Activity
1,CN(C)/C=C1\C[C@@H](C(=O)NCc2ccc(Cl)cc2Cl)N(c2cccs2)C1=O,Non-Toxic
2,O=C1N[C@H](C(=O)NCc2ccc(Cl)cc2Cl)C/C1=C/NCc1ccc(Cl)cc1Cl,Non-Toxic
3,O=C(NCC1CCCCC1)[C@@H]1CCC(=O)N1c1ccccc1,Non-Toxic

# System: M14
# Assay: Cytotoxicity against human M14 cells assessed as effect on cell growth at 10 uM incubated for 48 hrs by sulforhodamine B assay
# Format: cell-based
# Settings: m14, 48 h
row,SMILES,Activity
1,CN(C)/C=C1\C[C@@H](C(=O)NCc2ccc(Cl)cc2Cl)N(c2cccs2)C1=O,Non-Toxic
2,O=C1N[C@H](C(=O)NCc2ccc(Cl)cc2Cl)C/C1=C/NCc1ccc(Cl)cc1Cl,Non-Toxic
3,O=C(NCC1CCCCC1)[C@@H]1CCC(=O)N1c1ccccc1,Non-Toxic

# System: OVCAR-5
# Assay: Cytotoxicity against human OVCAR5 cells assessed as effect on cell growth at 10 uM incubated for 48 hrs by sulforhodamine B assay
# Format: cell-based
# Settings: ovcar-5, 48 h
row,SMILES,Activity
1,CN(C)/C=C1\C[C@@H](C(=O)NCc2ccc(Cl)cc2Cl)N(c2cccs2)C1=O,Non-Toxic
2,O=C1N[C@H](C(=O)NCc2ccc(Cl)cc2Cl)C/C1=C/NCc1ccc(Cl)cc1Cl,Non-Toxic
3,O=C(NCC1CCCCC1)[C@@H]1CCC(=O)N1c1ccccc1,Non-Toxic

# System: SK-OV-3
# Assay: Cytotoxicity against human SKOV3 cells assessed as effect on cell growth at 10 uM incubated for 48 hrs by sulforhodamine B assay
# Format: cell-based
# Settings: sk-ov-3, 48 h
row,SMILES,Activity
1,CN(C)/C=C1\C[C@@H](C(=O)NCc2ccc(Cl)cc2Cl)N(c2cccs2)C1=O,Non-Toxic
2,O=C1N[C@H](C(=O)NCc2ccc(Cl)cc2Cl)C/C1=C/NCc1ccc(Cl)cc1Cl,Non-Toxic
3,O=C(NCC1CCCCC1)[C@@H]1CCC(=O)N1c1ccccc1,Non-Toxic

# System: 786-0
# Assay: Cytotoxicity against human 786-0 cells assessed as effect on cell growth at 10 uM incubated for 48 hrs by sulforhodamine B assay
# Format: cell-based
# Settings: 786-0, 48 h
row,SMILES,Activity
1,CN(C)/C=C1\C[C@@H](C(=O)NCc2ccc(Cl)cc2Cl)N(c2cccs2)C1=O,Non-Toxic
2,O=C1N[C@H](C(=O)NCc2ccc(Cl)cc2Cl)C/C1=C/NCc1ccc(Cl)cc1Cl,Non-Toxic
3,O=C(NCC1CCCCC1)[C@@H]1CCC(=O)N1c1ccccc1,Non-Toxic

# System: A498
# Assay: Cytotoxicity against human A498 cells assessed as effect on cell growth at 10 uM incubated for 48 hrs by sulforhodamine B assay
# Format: cell-based
# Settings: a498, 48 h
row,SMILES,Activity
1,CN(C)/C=C1\C[C@@H](C(=O)NCc2ccc(Cl)cc2Cl)N(c2cccs2)C1=O,Non-Toxic
2,O=C1N[C@H](C(=O)NCc2ccc(Cl)cc2Cl)C/C1=C/NCc1ccc(Cl)cc1Cl,Non-Toxic
3,O=C(NCC1CCCCC1)[C@@H]1CCC(=O)N1c1ccccc1,Non-Toxic

# System: ACHN
# Assay: Cytotoxicity against human ACHN cells assessed as effect on cell growth at 10 uM incubated for 48 hrs by sulforhodamine B assay
# Format: cell-based
# Settings: not given
row,SMILES,Activity
1,CN(C)/C=C1\C[C@@H](C(=O)NCc2ccc(Cl)cc2Cl)N(c2cccs2)C1=O,Non-Toxic
2,O=C1N[C@H](C(=O)NCc2ccc(Cl)cc2Cl)C/C1=C/NCc1ccc(Cl)cc1Cl,Non-Toxic
3,O=C(NCC1CCCCC1)[C@@H]1CCC(=O)N1c1ccccc1,Non-Toxic

# System: UO-31
# Assay: Cytotoxicity against human UO31 cells assessed as effect on cell growth at 10 uM incubated for 48 hrs by sulforhodamine B assay
# Format: cell-based
# Settings: uo-31, 48 h
row,SMILES,Activity
1,CN(C)/C=C1\C[C@@H](C(=O)NCc2ccc(Cl)cc2Cl)N(c2cccs2)C1=O,Non-Toxic
2,O=C1N[C@H](C(=O)NCc2ccc(Cl)cc2Cl)C/C1=C/NCc1ccc(Cl)cc1Cl,Non-Toxic
3,O=C(NCC1CCCCC1)[C@@H]1CCC(=O)N1c1ccccc1,Non-Toxic

# System: DU-145
# Assay: Cytotoxicity against human DU145 cells assessed as effect on cell growth at 10 uM incubated for 48 hrs by sulforhodamine B assay
# Format: cell-based
# Settings: du-145, 48 h
row,SMILES,Activity
1,CN(C)/C=C1\C[C@@H](C(=O)NCc2ccc(Cl)cc2Cl)N(c2cccs2)C1=O,Non-Toxic
2,O=C1N[C@H](C(=O)NCc2ccc(Cl)cc2Cl)C/C1=C/NCc1ccc(Cl)cc1Cl,Non-Toxic
3,O=C(NCC1CCCCC1)[C@@H]1CCC(=O)N1c1ccccc1,Non-Toxic
